These results are taken from PubChem BioAssay AID2060890 (Molecular Pharmacology Branch, DTP, NCI, 2025).

In the assay the test system is LG0703-F948-PDC complex spheroid viability. In words: Anticancer human tumor LG0703-F948-PDC patient-derived lung adenocarcinoma cell line growth inhibition [RAS]. To be noted: for IC50: curve of first compound; for viability, T/C: stronger effect = lower value. In short, it runs like this:
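Agents were tested in combination matrices in half-log decrements from a top concentration at or near clinical Cmax (10 microM if undetermined). Targets were multi-cell spheroids of tumour lines plus HUVEC and MSC stromal cells.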

Bounds are passed on as bounds.

As usually defined, the IC50 is the midpoint of a concentration-inhibition curve. One may read the viability, T/C as the result in the treated group divided by that in the control group, in per cent.
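Note: spheroids exposed to agents for 7 days.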
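Throughout, for viability, T/C: 100% = DMSO vehicle wells.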

For the molecule `Nc1ccn(C2OC(CO)C(O)C2(F)F)c(=O)n1` (stereo not given) + C=CC(=O)N1CCN(c2nc(OCC3CCCN3C)nc3c(F)c(-c4nc(N)cc(C)c4C(F)(F)F)c(Cl)cc23)C(C)C1, the IC50 is, setting by setting: (second compound 0.00316 µM) 4.92 nM; (second compound 0.01 µM) 4.93 nM; (second compound 0.0316 µM) 5.48 nM; (second compound 0.1 µM) 5.32 nM; (second compound 0.316 µM) 5.96 nM; (second compound 1 µM) 5.85 nM. For the same molecule, the viability, T/C is 57.6% (second compound 0.00316 µM, first compound 0.00316 µM); 38.4% (second compound 0.00316 µM, first compound 0.01 µM); 27.3% (second compound 0.00316 µM, first compound 0.0316 µM); 28.2% (second compound 0.00316 µM, first compound 0.1 µM); 29.4% (second compound 0.00316 µM, first compound 0.316 µM); 6.7% (second compound 0.00316 µM, first compound 1 µM). In addition, the viability, T/C (second compound 0.01 µM, first compound 0.00316 µM) is 58.7%; the viability, T/C (second compound 0.01 µM, first compound 0.01 µM) was 36.9%; the viability, T/C (second compound 0.01 µM, first compound 0.0316 µM) is 25.1%; the viability, T/C (second compound 0.01 µM, first compound 0.1 µM) is 25.1%; the viability, T/C (second compound 0.01 µM, first compound 0.316 µM) was 24.6%; the viability, T/C (second compound 0.01 µM, first compound 1 µM) was 21.7%. Further, the viability, T/C was 61.6% (second compound 0.0316 µM, first compound 0.00316 µM); 36.7% (second compound 0.0316 µM, first compound 0.01 µM); 30.1% (second compound 0.0316 µM, first compound 0.0316 µM); 24% (second compound 0.0316 µM, first compound 0.1 µM); 24.1% (second compound 0.0316 µM, first compound 0.316 µM); 23.3% (second compound 0.0316 µM, first compound 1 µM). Further, the viability, T/C reads like this: (second compound 0.1 µM, first compound 0.00316 µM) 62.1%; (second compound 0.1 µM, first compound 0.01 µM) 35.4%; (second compound 0.1 µM, first compound 0.0316 µM) 26.8%; (second compound 0.1 µM, first compound 0.1 µM) 26.3%; (second compound 0.1 µM, first compound 0.316 µM) 26.8%; (second compound 0.1 µM, first compound 1 µM) 22.7%. Besides, the viability, T/C was 74.2% (second compound 0.316 µM, first compound 0.00316 µM); 30% (second compound 0.316 µM, first compound 0.01 µM); 29.9% (second compound 0.316 µM, first compound 0.0316 µM); 25.3% (second compound 0.316 µM, first compound 0.1 µM); 27.1% (second compound 0.316 µM, first compound 0.316 µM); 29.1% (second compound 0.316 µM, first compound 1 µM). Moreover, the viability, T/C reads like this: (second compound 1 µM, first compound 0.00316 µM) 63%; (second compound 1 µM, first compound 0.01 µM) 38.3%; (second compound 1 µM, first compound 0.0316 µM) 29%; (second compound 1 µM, first compound 0.1 µM) 30.1%; (second compound 1 µM, first compound 0.316 µM) 25.2%; (second compound 1 µM, first compound 1 µM) 21.4%.

Turning to `CCC(CC)c1cc(NC2CCC(N)C2)n2nccc2n1` (stereo not given) + CCn1c(-c2cccnc2C(C)OC)c2c3cc(ccc31)N1CCOC(CC(NC(=O)C(C(C)C)N(C)C(=O)C3(F)CCN(C(=O)C#CC(C)(C)N(C)C)CC3)C(=O)N3CCCC(N3)C(=O)OCC(C)(C)C2)C1, the IC50 is, setting by setting: (second compound 0.000949 µM) 964 nM; (second compound 0.003 µM) 1040 nM; (second compound 0.00949 µM) 1600 nM; (second compound 0.03 µM) 1090 nM; (second compound 0.0949 µM) 360 nM; (second compound 0.3 µM) < 31.6 nM. In addition, the viability, T/C is 104% (second compound 0.000949 µM, first compound 0.0316 µM); 89.9% (second compound 0.000949 µM, first compound 0.1 µM); 79.8% (second compound 0.000949 µM, first compound 0.316 µM); 54% (second compound 0.000949 µM, first compound 1 µM); 5.17% (second compound 0.000949 µM, first compound 3.16 µM); 0.33% (second compound 0.000949 µM, first compound 10 µM). Also, the viability, T/C was 104% (second compound 0.003 µM, first compound 0.0316 µM); 96.8% (second compound 0.003 µM, first compound 0.1 µM); 79.4% (second compound 0.003 µM, first compound 0.316 µM); 58.2% (second compound 0.003 µM, first compound 1 µM); 4.18% (second compound 0.003 µM, first compound 3.16 µM); 0.26% (second compound 0.003 µM, first compound 10 µM). Besides, the viability, T/C is, setting by setting: (second compound 0.00949 µM, first compound 0.0316 µM) 87.5%; (second compound 0.00949 µM, first compound 0.1 µM) 79.6%; (second compound 0.00949 µM, first compound 0.316 µM) 80.6%; (second compound 0.00949 µM, first compound 1 µM) 81.6%; (second compound 0.00949 µM, first compound 3.16 µM) 4.34%; (second compound 0.00949 µM, first compound 10 µM) 0.8%. In addition, the viability, T/C by setting is: (second compound 0.03 µM, first compound 0.0316 µM) 100%; (second compound 0.03 µM, first compound 0.1 µM) 91.1%; (second compound 0.03 µM, first compound 0.316 µM) 77.5%; (second compound 0.03 µM, first compound 1 µM) 58.6%; (second compound 0.03 µM, first compound 3.16 µM) 4.55%; (second compound 0.03 µM, first compound 10 µM) 0.32%. Also, the viability, T/C runs as follows: (second compound 0.0949 µM, first compound 0.0316 µM) 85.2%; (second compound 0.0949 µM, first compound 0.1 µM) 65.5%; (second compound 0.0949 µM, first compound 0.316 µM) 53.1%; (second compound 0.0949 µM, first compound 1 µM) 37.2%; (second compound 0.0949 µM, first compound 3.16 µM) 3.64%; (second compound 0.0949 µM, first compound 10 µM) 0.29%. In addition, the viability, T/C (second compound 0.3 µM, first compound 0.0316 µM) was 41.6%; the viability, T/C (second compound 0.3 µM, first compound 0.1 µM) was 41.2%; the viability, T/C (second compound 0.3 µM, first compound 0.316 µM) was 27.3%; the viability, T/C (second compound 0.3 µM, first compound 1 µM) is 22.4%; the viability, T/C (second compound 0.3 µM, first compound 3.16 µM) was 3.57%; the viability, T/C (second compound 0.3 µM, first compound 10 µM) was 0.69%.

Take `O=C(c1ccc(F)c(F)c1Nc1ccc(I)cc1F)N1CC(O)([C@@H]2CCCCN2)C1`: the viability, T/C reads like this: (compound 0.00316 µM) 96.7% [middle of 4 runs]; (compound 0.01 µM) 73.4% [middle of 4 runs]; (compound 0.0316 µM) 57.7% [middle of 4 runs]; (compound 0.1 µM) 42.3% [middle of 4 runs]; (compound 0.316 µM) 30.9% [middle of 4 runs]; (compound 1 µM) 25.4% [middle of 4 runs].

Consider `CC(Nc1ccc2c(c1)OCCn1cc(N3C(=O)OCC3C(F)F)nc1-2)C(N)=O` (stereo not given), for which the viability, T/C runs as follows: (compound 0.0316 µM) 96.2% [middle of 4 runs]; (compound 0.1 µM) 88.9% [middle of 4 runs]; (compound 1 µM) 56.3% [middle of 4 runs]; (compound 3.16 µM) 45% [middle of 4 runs]; (compound 10 µM) 27.8% [middle of 4 runs].
